# Data taken from US20200060276A1, “THIAZOLE COMPOUND AND HERBICIDE” (OAT Agrio Co., Ltd., priority 2017, published 2020).
# Columns and labels:
# Format in all cases: in vivo
# [1] = test system: Echinochloa crus-galli (L.) P. Beauv. var. formosensis Ohwi; assay: Test for Herbicidal Effect in Flooding Treatment (#2), ECHDG at 2-2.5 leaf stage; details: for inhibition at 200 g/ha: Echinochloa crus-galli, 504 h, flooding treatment (#2), ECHDG at 2-2.5 leaf stage, dose of 0.2 kg/ha, day 21, visual observation, read-out: growth inhibition effect; for ECHDG (2-2.5L) #2 herbicidal effect (growth inhibition grade): flooding treatment at 2-2.5 leaf stage, dose 0.2 kg/ha, visual observation on day 21
# Method in brief: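 Scoring is a visual 0–5 scale of growth inhibition (0 below 10%, 5 at 90% or more or full withering), taken 21 days after treatment in a glasshouse. Dose was 0.2 kg/ha, applied as acetone/Tween 80 aqueous solution onto flooded soil once seedlings reached the 2–2.5 leaf stage.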
# [2] = test system: Echinochloa crus-galli (L.) P. Beauv. var. formosensis Ohwi; assay: Test for Herbicidal Effect in Flooding Treatment (#1), ECHDG; details: flooding treatment at seeding, dose 2 kg/ha, visual observation on day 21
# Method in brief: (§1)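 Visual scores from 0 (<10% inhibition) to 5 (≥90% or complete withering) were taken 21 days after treatment of glasshouse-grown plants. Seeds were sown in soil flooded for 24 h beforehand, and compound was applied dropwise onto the surface at 2 kg/ha as an acetone solution diluted in water with Tween 80.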
# [3] = test system: Scirpus juncoides; assay: Test for Herbicidal Effect in Flooding Treatment (#1), SCIJU; details: flooding treatment at seeding, dose 2 kg/ha, visual observation on day 21
# Method in brief: as §1
# [4] = test system: Cyperus microiria; assay: Test for Herbicidal Effect in Flooding Treatment (#1), CYMIC; details: flooding treatment at seeding, dose 2 kg/ha, visual observation on day 21
# Method in brief: as §1
# [5] = test system: Monochoria vaginalis; assay: Test for Herbicidal Effect in Flooding Treatment (#1), MONVA; details: flooding treatment at seeding, dose 2 kg/ha, visual observation on day 21
# Method in brief: as §1
compound,measurement,setting,value
CCOc1cccc(F)c1CS(=O)(=O)c1ncc(Cl)s1 [Compound 1C-19],inhibition at 200 g/ha,[1],≥ 90%
same,ECHDG (2-2.5L) #2 herbicidal effect (growth inhibition grade),[1],"5 (Growth inhibition effect is equal to or greater than 90%, or complete withering is achieved)"
same,ECHDG #1 herbicidal effect (growth inhibition grade),[2],"5 (Growth inhibition effect is equal to or greater than 90%, or complete withering is achieved)"
same,SCIJU #1 herbicidal effect (growth inhibition grade),[3],"5 (Growth inhibition effect is equal to or greater than 90%, or complete withering is achieved)"
same,CYMIC #1 herbicidal effect (growth inhibition grade),[4],"5 (Growth inhibition effect is equal to or greater than 90%, or complete withering is achieved)"
same,MONVA #1 herbicidal effect (growth inhibition grade),[5],"5 (Growth inhibition effect is equal to or greater than 90%, or complete withering is achieved)"
CCOc1c(F)cc(F)cc1CS(=O)(=O)c1ncc(Cl)s1 [Compound 1C-21],inhibition at 200 g/ha,[1],≥ 90%
same,ECHDG (2-2.5L) #2 herbicidal effect (growth inhibition grade),[1],"5 (Growth inhibition effect is equal to or greater than 90%, or complete withering is achieved)"
same,ECHDG #1 herbicidal effect (growth inhibition grade),[2],"5 (Growth inhibition effect is equal to or greater than 90%, or complete withering is achieved)"
same,SCIJU #1 herbicidal effect (growth inhibition grade),[3],"5 (Growth inhibition effect is equal to or greater than 90%, or complete withering is achieved)"
same,CYMIC #1 herbicidal effect (growth inhibition grade),[4],"5 (Growth inhibition effect is equal to or greater than 90%, or complete withering is achieved)"
same,MONVA #1 herbicidal effect (growth inhibition grade),[5],"5 (Growth inhibition effect is equal to or greater than 90%, or complete withering is achieved)"
CCOc1c(Cl)cc(F)cc1CS(=O)(=O)c1ncc(Cl)s1 [Compound 1C-22],ECHDG (2-2.5L) #2 herbicidal effect (growth inhibition grade),[1],"5 (Growth inhibition effect is equal to or greater than 90%, or complete withering is achieved)"
same,ECHDG #1 herbicidal effect (growth inhibition grade),[2],"5 (Growth inhibition effect is equal to or greater than 90%, or complete withering is achieved)"
same,SCIJU #1 herbicidal effect (growth inhibition grade),[3],"5 (Growth inhibition effect is equal to or greater than 90%, or complete withering is achieved)"
same,CYMIC #1 herbicidal effect (growth inhibition grade),[4],"5 (Growth inhibition effect is equal to or greater than 90%, or complete withering is achieved)"
same,MONVA #1 herbicidal effect (growth inhibition grade),[5],"5 (Growth inhibition effect is equal to or greater than 90%, or complete withering is achieved)"
CCOc1c(Cl)cc(Cl)cc1CS(=O)(=O)c1ncc(Cl)s1 [Compound 1C-23],ECHDG (2-2.5L) #2 herbicidal effect (growth inhibition grade),[1],"3 (Growth inhibition effect equal to or greater than 50%, and less than 70%)"
same,ECHDG #1 herbicidal effect (growth inhibition grade),[2],"5 (Growth inhibition effect is equal to or greater than 90%, or complete withering is achieved)"
same,SCIJU #1 herbicidal effect (growth inhibition grade),[3],"5 (Growth inhibition effect is equal to or greater than 90%, or complete withering is achieved)"
same,CYMIC #1 herbicidal effect (growth inhibition grade),[4],"5 (Growth inhibition effect is equal to or greater than 90%, or complete withering is achieved)"
same,MONVA #1 herbicidal effect (growth inhibition grade),[5],"5 (Growth inhibition effect is equal to or greater than 90%, or complete withering is achieved)"
CCOc1c(C)cc(F)cc1CS(=O)(=O)c1ncc(Cl)s1 [Compound 1C-25],ECHDG (2-2.5L) #2 herbicidal effect (growth inhibition grade),[1],"5 (Growth inhibition effect is equal to or greater than 90%, or complete withering is achieved)"
same,ECHDG #1 herbicidal effect (growth inhibition grade),[2],"5 (Growth inhibition effect is equal to or greater than 90%, or complete withering is achieved)"
same,SCIJU #1 herbicidal effect (growth inhibition grade),[3],"5 (Growth inhibition effect is equal to or greater than 90%, or complete withering is achieved)"
same,CYMIC #1 herbicidal effect (growth inhibition grade),[4],"5 (Growth inhibition effect is equal to or greater than 90%, or complete withering is achieved)"
same,MONVA #1 herbicidal effect (growth inhibition grade),[5],"5 (Growth inhibition effect is equal to or greater than 90%, or complete withering is achieved)"
CCOc1c(C)cc(Cl)cc1CS(=O)(=O)c1ncc(Cl)s1 [Compound 1C-26],ECHDG (2-2.5L) #2 herbicidal effect (growth inhibition grade),[1],"5 (Growth inhibition effect is equal to or greater than 90%, or complete withering is achieved)"
same,ECHDG #1 herbicidal effect (growth inhibition grade),[2],"5 (Growth inhibition effect is equal to or greater than 90%, or complete withering is achieved)"
same,SCIJU #1 herbicidal effect (growth inhibition grade),[3],"5 (Growth inhibition effect is equal to or greater than 90%, or complete withering is achieved)"
same,CYMIC #1 herbicidal effect (growth inhibition grade),[4],"5 (Growth inhibition effect is equal to or greater than 90%, or complete withering is achieved)"
same,MONVA #1 herbicidal effect (growth inhibition grade),[5],"5 (Growth inhibition effect is equal to or greater than 90%, or complete withering is achieved)"
CCOc1c(F)ccc(F)c1CS(=O)(=O)c1ncc(Cl)s1 [Compound 1C-27],ECHDG (2-2.5L) #2 herbicidal effect (growth inhibition grade),[1],"5 (Growth inhibition effect is equal to or greater than 90%, or complete withering is achieved)"
same,ECHDG #1 herbicidal effect (growth inhibition grade),[2],"5 (Growth inhibition effect is equal to or greater than 90%, or complete withering is achieved)"
same,SCIJU #1 herbicidal effect (growth inhibition grade),[3],"5 (Growth inhibition effect is equal to or greater than 90%, or complete withering is achieved)"
same,CYMIC #1 herbicidal effect (growth inhibition grade),[4],"5 (Growth inhibition effect is equal to or greater than 90%, or complete withering is achieved)"
same,MONVA #1 herbicidal effect (growth inhibition grade),[5],"5 (Growth inhibition effect is equal to or greater than 90%, or complete withering is achieved)"
CCOc1c(C)ccc(C)c1CS(=O)(=O)c1ncc(Cl)s1 [Compound 1C-28],ECHDG (2-2.5L) #2 herbicidal effect (growth inhibition grade),[1],"5 (Growth inhibition effect is equal to or greater than 90%, or complete withering is achieved)"
same,ECHDG #1 herbicidal effect (growth inhibition grade),[2],"5 (Growth inhibition effect is equal to or greater than 90%, or complete withering is achieved)"
same,SCIJU #1 herbicidal effect (growth inhibition grade),[3],"5 (Growth inhibition effect is equal to or greater than 90%, or complete withering is achieved)"
same,CYMIC #1 herbicidal effect (growth inhibition grade),[4],"5 (Growth inhibition effect is equal to or greater than 90%, or complete withering is achieved)"
same,MONVA #1 herbicidal effect (growth inhibition grade),[5],"5 (Growth inhibition effect is equal to or greater than 90%, or complete withering is achieved)"
CCOc1cc(C)c(Cl)cc1CS(=O)(=O)c1ncc(Cl)s1 [Compound 1C-30],ECHDG (2-2.5L) #2 herbicidal effect (growth inhibition grade),[1],"5 (Growth inhibition effect is equal to or greater than 90%, or complete withering is achieved)"
same,ECHDG #1 herbicidal effect (growth inhibition grade),[2],"5 (Growth inhibition effect is equal to or greater than 90%, or complete withering is achieved)"
same,SCIJU #1 herbicidal effect (growth inhibition grade),[3],"5 (Growth inhibition effect is equal to or greater than 90%, or complete withering is achieved)"
same,CYMIC #1 herbicidal effect (growth inhibition grade),[4],"5 (Growth inhibition effect is equal to or greater than 90%, or complete withering is achieved)"
same,MONVA #1 herbicidal effect (growth inhibition grade),[5],"5 (Growth inhibition effect is equal to or greater than 90%, or complete withering is achieved)"
CCOc1cc(F)cc(F)c1CS(=O)(=O)c1ncc(Cl)s1 [Compound 1C-31],ECHDG (2-2.5L) #2 herbicidal effect (growth inhibition grade),[1],"5 (Growth inhibition effect is equal to or greater than 90%, or complete withering is achieved)"
same,ECHDG #1 herbicidal effect (growth inhibition grade),[2],"5 (Growth inhibition effect is equal to or greater than 90%, or complete withering is achieved)"
same,SCIJU #1 herbicidal effect (growth inhibition grade),[3],"5 (Growth inhibition effect is equal to or greater than 90%, or complete withering is achieved)"
same,CYMIC #1 herbicidal effect (growth inhibition grade),[4],"5 (Growth inhibition effect is equal to or greater than 90%, or complete withering is achieved)"
same,MONVA #1 herbicidal effect (growth inhibition grade),[5],"5 (Growth inhibition effect is equal to or greater than 90%, or complete withering is achieved)"
CCOc1cc(C)c(Cl)c(C)c1CS(=O)(=O)c1ncc(Cl)s1 [Compound 1C-35],ECHDG (2-2.5L) #2 herbicidal effect (growth inhibition grade),[1],"5 (Growth inhibition effect is equal to or greater than 90%, or complete withering is achieved)"
same,ECHDG #1 herbicidal effect (growth inhibition grade),[2],"5 (Growth inhibition effect is equal to or greater than 90%, or complete withering is achieved)"
same,SCIJU #1 herbicidal effect (growth inhibition grade),[3],"5 (Growth inhibition effect is equal to or greater than 90%, or complete withering is achieved)"
same,CYMIC #1 herbicidal effect (growth inhibition grade),[4],"5 (Growth inhibition effect is equal to or greater than 90%, or complete withering is achieved)"
same,MONVA #1 herbicidal effect (growth inhibition grade),[5],"5 (Growth inhibition effect is equal to or greater than 90%, or complete withering is achieved)"
CC(C)Oc1ccccc1CS(=O)(=O)c1ncc(Cl)s1 [Compound 1C-36],ECHDG (2-2.5L) #2 herbicidal effect (growth inhibition grade),[1],"4 (Growth inhibition effect is equal to or greater than 70%, and less than 90%)"
same,ECHDG #1 herbicidal effect (growth inhibition grade),[2],"5 (Growth inhibition effect is equal to or greater than 90%, or complete withering is achieved)"
same,SCIJU #1 herbicidal effect (growth inhibition grade),[3],"5 (Growth inhibition effect is equal to or greater than 90%, or complete withering is achieved)"
same,CYMIC #1 herbicidal effect (growth inhibition grade),[4],"5 (Growth inhibition effect is equal to or greater than 90%, or complete withering is achieved)"
same,MONVA #1 herbicidal effect (growth inhibition grade),[5],"5 (Growth inhibition effect is equal to or greater than 90%, or complete withering is achieved)"
O=S(=O)(Cc1cc(Cl)ccc1OC(F)F)c1ncc(Cl)s1 [Compound 1C-39],ECHDG (2-2.5L) #2 herbicidal effect (growth inhibition grade),[1],"5 (Growth inhibition effect is equal to or greater than 90%, or complete withering is achieved)"
same,ECHDG #1 herbicidal effect (growth inhibition grade),[2],"5 (Growth inhibition effect is equal to or greater than 90%, or complete withering is achieved)"
same,SCIJU #1 herbicidal effect (growth inhibition grade),[3],"5 (Growth inhibition effect is equal to or greater than 90%, or complete withering is achieved)"
same,CYMIC #1 herbicidal effect (growth inhibition grade),[4],"5 (Growth inhibition effect is equal to or greater than 90%, or complete withering is achieved)"
same,MONVA #1 herbicidal effect (growth inhibition grade),[5],"5 (Growth inhibition effect is equal to or greater than 90%, or complete withering is achieved)"
